Assay results published in ChEMBL document CHEMBL1139702, “4'-Alkoxyl substitution enhancing the anti-mitotic effect of 5-(3',4',5'-substituted)anilino-4-hydroxy-8-nitroquinazolines as a novel class of anti-microtubule agents” (Bioorg Med Chem Lett, 2006).
Calls of active or inactive are those of the source. No cut-off for these calls is given here.

Experiments:
HGC-27 [1] = test: Antiproliferative activity against HGC27 cells at 50 uM by MTT assay; type: functional, cell-based; conditions: Homo sapiens
HGC-27 [2] = test: Cell cycle arrest in HGC27 cells by accumulation at G2/M phase at 50 uM after 24 hrs; type: functional; conditions: Homo sapiens, HGC-27, 24 h
A549 [3] = test: Cell cycle arrest in A549 cells by accumulation at G2/M phase at 50 uM after 24 hrs; type: functional, cell-based; conditions: Homo sapiens
A549 [4] = test: Antiproliferative activity against A549 cells by MTT assay; type: functional, cell-based; conditions: Homo sapiens
HGC-27 [5] = test: Antiproliferative activity against HGC27 cells by MTT assay; type: functional, cell-based; conditions: Homo sapiens

Compound | Activity (HGC-27 [1]) | other results
COC(=O)/C=C\c1ccc(C(=O)OCCOc2ccc(Nc3ccc([N+](=O)[O-])c4ncnc(O)c34)cc2)cc1 | Active | –
COc1cc(Nc2ccc([N+](=O)[O-])c3ncnc(O)c23)cc(OC)c1OC | Active | inhibition at 50 µM (HGC-27 [2]): 81%; Activity (A549 [3]): Active
O=[N+]([O-])c1ccc(Nc2ccc(OCc3ccccc3)c(Cl)c2)c2c(O)ncnc12 | Active | –
COc1ccc(Nc2ccc([N+](=O)[O-])c3ncnc(O)c23)cc1Cl | – | IC50 (A549 [4]): 20 µM; IC50 (HGC-27 [5]): 20 µM
O=[N+]([O-])c1ccc(Nc2ccc(OCCCN3CCOCC3)cc2)c2c(O)ncnc12 | Active | –
